biological target: T1, Cyclin E/CDK2 (Homo sapiens, UniProt P24941); experiment: Cyclin E/CDK2 in vitro kinase assay (33P-ATP, SPA beads); assay type: biochemical
T1 construct: made in house; host or cells: SF9 insect cells (baculovirus co-infection)

Point of comparison: `Cc1cc(Nc2cc(C3CCCNC3)nc3c(-c4cnn(C)c4)cnn23)sn1` (centres unmarked), IC50 46 µM. Against it:
- Cc1cc(Nc2cc(C3CCCNC3)nc3c(-c4cncs4)cnn23)sn1 (centres unmarked) — 14-fold lower, 3.3 µM
- Cc1cc(Nc2cc(C3CNCCS3)nc3c(-c4cnn(C)c4)cnn23)sn1 (centres unmarked) — within 1.5-fold, 40 µM
- Cc1cc(Nc2cc(C3CCCNC3)nc3c(Br)cnn23)sn1 (centres unmarked) — 610-fold lower, 0.076 µM
- Cc1cc(Nc2cc(C3CCCNC3)nc3c(-c4coc(C#N)c4)cnn23)sn1 (centres unmarked) — 13-fold lower, 3.6 µM
- Cc1cc(Nc2cc(C3CCCNC3)nc3c(-c4coc(C=NO)c4)cnn23)sn1 (centres unmarked) — 920-fold lower, 0.05 µM
- Cc1cc(Nc2cc(N3CC[C@@H](N)C3)nc3c(-c4cnn(C)c4)cnn23)sn1 — within 1.5-fold, 49 µM
- Cc1cc(Nc2cc(N3CC(N)C3)nc3c(-c4cnn(C)c4)cnn23)sn1 — 6.9-fold lower, 6.7 µM
